# Measured values from US20250360142A1, “NOVEL ATP-SENSITIVE POTASSIUM CHANNEL POTENTIATORS, THEIR PREPARATION AND USE” (RHYTHM PHARMACEUTICALS, INC., priority 2022, published 2025).
# Test system: INS-1E cells
# Test: Glucose stimulated insulin secretion assay (GSIS) in INS-1E cells
# Type: cell-based, rat
# Conditions: INS-1E cell line, average inhibition
# Protocol: (§1) INS-1E, rat pancreatic tumor (insulinoma) cells were used in the GSIS assay. INS-1E cells were thawed and incubated in culture medium (CM) (RPMI 1640+Glucose q.s., HEPES 25 mM, Na-Pyruvat 1 mM, 2-Mercaptoethanol 50 μM, Fetal Calf Serum; heat inactivated (FCS) 10%, Penicillin/Streptomycin 100 U/ml) at 37° C.; 5% CO2 in a humidified atmosphere. 96 welled plates are coated with Matrigel by incubating the plates with 1 ml pre-diluted 1:10 with cold basal medium with 100 μl/well at 37° C. for 1 hour. Matrigel is then removed and replaced with 100 μl CM. Cells are then seeded into the wells as 70 000 cells/well. CM is refreshed with 200 μl fresh CM on the third day. CM is refreshed again with 200 μl fresh CM on the sixth day. GSIS assay is performed on the seventh day and cells in wells are washed with PKrebs®BSA and incubated with 100 μL/well for 2 h. Secretion plates are placed in an incubator at 37° C., 5% C02 and saturated humidity for 60 min. Meanwhile, lysis solution is prepared by adding 1 tablet of protease inhibitor/10 mL TETG solution and kept at 4° C. until the end of the experiment. The other incubation buffers are prepared without adding pharmacological compounds, aliquoted and then placed in a water bath at 37° C. The samples are prepared including negative (βKrebs®B0=0 mM Glucose) and positive controls (PKrebs®B20=20 mM Glucose) and each compound to be tested is diluted in DMSO as having a series of final concentration including 10.00, 4.00, 1.60, 0.64, 0.26, 0.10, 0.04, 0.02 μM.
# (§2) After 2 hours of starvation, glucose stimulation and treatments are initiated. KRB Buffer from cells is removed by pipetting. The solutions are homogenized and the cells are treated with 90 µL/well. 10 μl from 10-fold compound dilution is added to the assay plate (final 100 μl/well) according to the following layout for each compound to be tested.
# (§3) Incubation time is 40 minutes. Plates are placed in an incubator at 37° C., 5% CO2 and saturated humidity. After incubation, 80 μL of supernatants are collected without disrupting the cell layer and stored at 4° C. or on ice until centrifugation. Remaining medium are removed from each well and 100 μL/well of cold lysis solution is added and incubated for minimum 2 minutes at room temperature. Cell lysis is observed under microscope and waited for maximum for 5 more minutes until the lysis is complete. Cell lysates are collected and all samples including supernatants are centrifuged at 700×g, 5 min at 4° C. 30 μL of each samples are transferred into aliquots for ELISA. ELISA is performed with HTRF Assay Kit comprising an insulin high range kit supplied by Cisbio/Perkin Elmer. 5 μl of each Insulin standard and 5 μl of either supernatant or lysate are transferred on HTRF plate. 40 μl/well of Anti-insulin—XL665 and 20 μl/well of Anti-insulin—EU are added to each well and the plate is read on HTRF compatible reader (fluorescence 620 nm & 665 nm).
row,Compound,% inhibition of Insulin (Average Inhibition (%))
1,"C[C@@H]1CC1NC1=NS(=O)(=O)c2cc(F)c(Cl)cc2N1 (mixture of isomers) [Compound 25, (rac)-trans-6-chloro-7-fluoro-3-((2-methylcyclopropyl)amino)-4H-benzo[e][1,2,4|thiadiazine 1,1-dioxide]",C (C is equal to 10-25% inhibition)
2,"CC1(C)CC1NC1=NS(=O)(=O)c2cc(F)ccc2N1 (single isomer, unassigned) [Compound 7, (R*)-3-((2,2-dimethylcyclopropyl)amino)-7-fluoro-4H-benzo[e][1,2,4]thiadiazine 1,1-dioxide]",B (B is equal to 25-50% inhibition)
3,"O=S1(=O)N=C(NC2CC23CC3)Nc2ccc(F)cc21 (single isomer, unassigned) [Compound 9, (S*)-7-fluoro-3-(spiro[2.2]pentan-1-ylamino)-4H-benzo[e][1,2,4]thiadiazine 1,1-dioxide]",B (B is equal to 25-50% inhibition)
4,"O=S1(=O)N=C(NC2CC23CCC3)Nc2ccc(F)cc21 (stereo not shown) [Compound 11, 7-fluoro-3(spiro[2.3]hexan-1-ylamino)-4H-benzo[e][1,2,4]thiadiazine 1,1-dioxide]",B (B is equal to 25-50% inhibition)
5,"CCC1(NC2=NS(=O)(=O)c3cc(F)ccc3N2)CC1 [Compound 12, 3-((1-ethylcyclopropyl)amino)-7-fluoro-4H-benzo[e][1,2,4]thiadiazine 1,1-dioxide]",C (C is equal to 10-25% inhibition)
6,"CC12CC(NC3=NS(=O)(=O)c4cc(F)c(Cl)cc4N3)(C1)C2 [Compound 18, 6-chloro-7-fluoro-3-((3-methylbicyclo[1.1.1]pentan-1-yl)amino)-4H-benzo[e][1,2,4]thiadiazine 1,1-dioxide]",C (C is equal to 10-25% inhibition)

# Same assay, conditions: Rattus norvegicus, INS-1E cell line
row,Compound,IC50
1,"O=S1(=O)N=C(NC2CC23CCC3)Nc2ccc(F)cc21 (stereo not shown) [Compound 11, 7-fluoro-3(spiro[2.3]hexan-1-ylamino)-4H-benzo[e][1,2,4]thiadiazine 1,1-dioxide]",0.5 to 1 µM

# Same assay, conditions: Rattus norvegicus, INS-1E cells, 10 μM
row,Compound,inhibition at 10 µM
1,O=S1(=O)N=C(NC(CF)CF)Nc2ccc(F)cc21 [Compound 43],10 to 25%
2,CC1(NC2=NS(=O)(=O)c3cc(F)ccc3N2)CC1 [Compound 46],≥ 50%
3,O=S1(=O)N=C(NC2(CF)CC2)Nc2ccc(F)cc21 [Compound 47],10 to 25%
4,O=S1(=O)N=C(NC(CF)CF)Nc2ccc(Cl)cc21 [Compound 49],≥ 50%
5,CC1(NC2=NS(=O)(=O)c3cc(Cl)ccc3N2)CC1 [Compound 51],10 to 25%
6,O=S1(=O)N=C(NC2(CF)CC2)Nc2ccc(Cl)cc21 [Compound 52],10 to 25%
7,CC1(NC2=NS(=O)(=O)c3cc(F)c(Cl)cc3N2)CC1 [Compound 58],≥ 50%
8,O=S1(=O)N=C(NC2(CF)CC2)Nc2cc(Cl)c(F)cc21 [Compound 60],≥ 50%
9,O=S1(=O)N=C(NC23CC(C2)C3)Nc2ccc(Cl)cc21 [Compound 62],25 to 50%
10,CC(C)C1(NC2=NS(=O)(=O)c3cc(F)ccc3N2)CC1 [Compound 63],≥ 50%
11,CC(C)C1(NC2=NS(=O)(=O)c3cc(F)c(Cl)cc3N2)CC1 [Compound 64],25 to 50%
12,COCC1(NC2=NS(=O)(=O)c3cc(F)ccc3N2)CCC1 [Compound 65],25 to 50%
13,COCC1(NC2=NS(=O)(=O)c3cc(F)c(Cl)cc3N2)CCC1 [Compound 69],≥ 50%
14,O=S1(=O)N=C(NC2CCOC2)Nc2ccc(F)cc21 (stereo not shown) [Compound 71],10 to 25%
15,O=S1(=O)N=C(NC2CCOC2)Nc2ccc(Cl)cc21 (stereo not shown) [Compound 72],25 to 50%
16,O=S1(=O)N=C(NC2CCOC2)Nc2cc(Cl)c(F)cc21 (stereo not shown) [Compound 73],≥ 50%

# Test system: EndoC-βH1 Cell Line
# Test: GSIS assay in EndoC-βH1 cell line
# Type: cell-based
# Conditions: not given
# Protocol: as §1, §2, §3
# GSIS experiments were also performed in other cell lines, e.g., EndoC-βH1, a canonical cell line for screening new therapeutic compounds.
row,Compound,IC50
1,"C[C@@H]1CC1NC1=NS(=O)(=O)c2cc(F)c(Cl)cc2N1 (mixture of isomers) [Compound 25, (rac)-trans-6-chloro-7-fluoro-3-((2-methylcyclopropyl)amino)-4H-benzo[e][1,2,4|thiadiazine 1,1-dioxide]",1 to 2 µM
2,"O=S1(=O)N=C(NC2CC23CCC3)Nc2cc(Cl)c(F)cc21 (single isomer, unassigned) [Compound 16, (S*)-6-chloro-7-fluoro-3-(spiro[2.3]hexan-1-ylamino)-4H-benzo[e][1,2,4]-thiadiazine 1,1-dioxide]",0.5 to 1 µM
3,"O=S1(=O)N=C(NC2CC23CCC3)Nc2cc(Cl)c(F)cc21 (single isomer, unassigned) [Compound 17, (R*)-6-chloro-7-fluoro-3-(spiro[2.3]hexan-1-ylamino)-4H-benzo[e][1,2,4]-thiadiazine 1,1-dioxide]",< 0.5 µM
4,"CC1(C)CC1NC1=NS(=O)(=O)c2cc(F)c(Cl)cc2N1 (single isomer, unassigned) [Compound 21, (S*)-6-chloro-3-((2,2-dimethylcyclopropyl)amino)-7-fluoro-4H benzo[e][1,2,4] thiadiazine 1,1-dioxide]",0.5 to 1 µM
5,"CC1(C)CC1NC1=NS(=O)(=O)c2cc(F)c(Cl)cc2N1 (single isomer, unassigned) [Compound 22, (R*)-6-chloro-3-((2,2-dimethylcyclopropyl)amino)-7-fluoro-4H-benzo[e][1,2,4] thiadiazine 1,1-dioxide]",1 to 2 µM
6,"O=S1(=O)N=C(NC2CC23CC3)Nc2cc(Cl)c(F)cc21 (single isomer, unassigned) [Compound 29, (S*)-6-chloro-7-fluoro-3-(spiro[2.2]pentan-1-ylamino)-4H-benzo[e][1,2,4]-thiadiazine 1,1-dioxide]",≥ 2 µM
7,"O=S1(=O)N=C(NC2CC23CC3)Nc2cc(Cl)c(F)cc21 (single isomer, unassigned) [Compound 30, (R*)-6-chloro-7-fluoro-3-(spiro[2.2]pentan-1-ylamino)-4H-benzo[e][1,2,4]-thiadiazine 1,1-dioxide]",< 0.5 µM
8,"C[C@H]1C[C@@H]1NC1=NS(=O)(=O)c2cc(F)c(Cl)cc2N1 (stereo in doubt) [Compound 26, 6-chloro-7-fluoro-3-(((1S*, 2S*)-2-methylcyclopropyl)amino)-4H-benzo[e][1,2,4]-thiadiazine 1,1-dioxide]",1 to 2 µM
9,"C[C@@H]1C[C@H]1NC1=NS(=O)(=O)c2cc(F)c(Cl)cc2N1 (stereo in doubt) [Compound 27, 6-chloro-7-fluoro-3-(((1R*, 2R*)-2 methylcyclopropyl)amino)-4H-benzo[e][1,2,4]-thiadiazine 1,1-dioxide]",≥ 2 µM
10,"CC1(NC2=NS(=O)(=O)c3cc(F)ccc3N2)CCC1 [Compound 2, 7-fluoro-3-((1-methylcyclobutyl)amino)-4H-benzo[e][1,2,4]thiadiazine 1,1-dioxide]",< 0.5 µM
11,"O=S1(=O)N=C(NC23CC(F)(C2)C3)Nc2ccc(F)cc21 [Compound 3, 7-fluoro-3-((3-fluorobicyclo[1.1.1]pentan-1-yl)amino)-4H-benzo[e][1,2,4]thiadiazine 1,1-dioxide]",≥ 2 µM
12,"O=S1(=O)N=C(NC23CCC(C2)C3)Nc2ccc(F)cc21 [Compound 4, 3-(bicyclo[2.1.1]hexan-1-ylamino)-7-fluoro-4H-benzo[e][1,2,4]thiadiazine 1,1-dioxide]",0.5 to 1 µM
13,"CC1(C)CC1NC1=NS(=O)(=O)c2cc(F)ccc2N1 (stereo not shown) [Compound 5, 3-((2,2-dimethylcyclopropyl)amino)-7-fluoro-4H-benzo[e][1,2,4]thiadiazine 1,1-dioxide]",1 to 2 µM
14,"O=S1(=O)N=C(NC2CC23CC3)Nc2ccc(F)cc21 (stereo not shown) [Compound 8, 7-fluoro-(spiro[2.2]pentan-1-ylamino)-4H-benzo[e][1,2,4]thiadiazine 1,1-dioxide]",1 to 2 µM
15,"CC1(C)CC1NC1=NS(=O)(=O)c2cc(F)c(Cl)cc2N1 (stereo not shown) [Compound 20, 6-chloro-3-((2,2-dimethylcyclopropyl)amino)-7-fluoro-4H-benzo[e][1,2,4] thiadiazine 1,1-dioxide]",< 0.5 µM
16,"CC1(NC2=NS(=O)(=O)c3cc(F)c(Cl)cc3N2)CCC1 [Compound 24, 6-chloro-7-fluoro-3-((1-methylcyclobutyl)amino)-4H-benzo[e][1,2,4]thiadiazine 1,1-dioxide]",< 0.5 µM
17,"O=S1(=O)N=C(NC2CC23CC3)Nc2cc(Cl)c(F)cc21 (stereo not shown) [Compound 28, 6-chloro-7-fluoro-3-(spiro[2.2]pentan-1-ylamino)-4H-benzo[e][1,2,4]thiadiazine 1,1-dioxide]",< 0.5 µM
